According to ChEMBL document CHEMBL5331134, “Identification of Brain-Penetrant ATP-Competitive mTOR Inhibitors for CNS Syndromes” (J Med Chem, 2023):
Converted amounts (≈) assume the structure as drawn.

Key:
[1] = target: 3',5'-cyclic-AMP phosphodiesterase 4D (Homo sapiens, UniProt Q08499); test: Inhibition of PDE4D (unknown origin)
[2] = target: T1, Serine/threonine-protein kinase mTOR (Mus musculus, UniProt Q9JLN9); test: Inhibition of mTOR in TSC1 knockout mouse MEF cells assessed as reduction in phosphorylated S6 level at serine 240/244 residues incubated for 2 hrs by Hoechst/Alexa Fluor 647 staining based analysis; assay type: cell-based
Cytochrome P450 3A4 [3] = target: T2, Cytochrome P450 3A4 (Homo sapiens, UniProt P08684); test: Inhibition of CYP3A4 (unknown origin) assessed as Kobs; assay type: ADME
T2 sequence (P08684 whole entry): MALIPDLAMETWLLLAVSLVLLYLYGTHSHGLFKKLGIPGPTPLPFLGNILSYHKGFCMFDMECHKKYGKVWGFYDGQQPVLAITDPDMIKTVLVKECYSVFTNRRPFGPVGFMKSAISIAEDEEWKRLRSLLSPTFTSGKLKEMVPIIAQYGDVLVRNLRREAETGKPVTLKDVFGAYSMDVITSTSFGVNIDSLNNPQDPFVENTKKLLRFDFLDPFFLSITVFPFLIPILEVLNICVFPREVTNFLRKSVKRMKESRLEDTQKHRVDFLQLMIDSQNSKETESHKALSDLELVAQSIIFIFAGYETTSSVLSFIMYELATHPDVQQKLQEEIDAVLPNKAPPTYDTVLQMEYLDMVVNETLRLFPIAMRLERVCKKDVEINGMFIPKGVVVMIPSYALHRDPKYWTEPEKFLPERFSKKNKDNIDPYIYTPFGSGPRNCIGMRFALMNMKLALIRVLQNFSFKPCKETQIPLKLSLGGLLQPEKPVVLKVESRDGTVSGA

[4] = Efflux ratio of apparent permeability across basolateral to apical side over apical to basolateral side in MDCK-MDR1 cells; assay type: ADME, cell-based, Canis lupus familiaris; conditions: dog
[5] = target: Serine/threonine-protein kinase ATR (Homo sapiens, UniProt Q13535); test: Inhibition of ATR (unknown origin)-driven CHK1 phosphorylation
Sequence of Serine/threonine-protein kinase ATR (Q13535 whole entry): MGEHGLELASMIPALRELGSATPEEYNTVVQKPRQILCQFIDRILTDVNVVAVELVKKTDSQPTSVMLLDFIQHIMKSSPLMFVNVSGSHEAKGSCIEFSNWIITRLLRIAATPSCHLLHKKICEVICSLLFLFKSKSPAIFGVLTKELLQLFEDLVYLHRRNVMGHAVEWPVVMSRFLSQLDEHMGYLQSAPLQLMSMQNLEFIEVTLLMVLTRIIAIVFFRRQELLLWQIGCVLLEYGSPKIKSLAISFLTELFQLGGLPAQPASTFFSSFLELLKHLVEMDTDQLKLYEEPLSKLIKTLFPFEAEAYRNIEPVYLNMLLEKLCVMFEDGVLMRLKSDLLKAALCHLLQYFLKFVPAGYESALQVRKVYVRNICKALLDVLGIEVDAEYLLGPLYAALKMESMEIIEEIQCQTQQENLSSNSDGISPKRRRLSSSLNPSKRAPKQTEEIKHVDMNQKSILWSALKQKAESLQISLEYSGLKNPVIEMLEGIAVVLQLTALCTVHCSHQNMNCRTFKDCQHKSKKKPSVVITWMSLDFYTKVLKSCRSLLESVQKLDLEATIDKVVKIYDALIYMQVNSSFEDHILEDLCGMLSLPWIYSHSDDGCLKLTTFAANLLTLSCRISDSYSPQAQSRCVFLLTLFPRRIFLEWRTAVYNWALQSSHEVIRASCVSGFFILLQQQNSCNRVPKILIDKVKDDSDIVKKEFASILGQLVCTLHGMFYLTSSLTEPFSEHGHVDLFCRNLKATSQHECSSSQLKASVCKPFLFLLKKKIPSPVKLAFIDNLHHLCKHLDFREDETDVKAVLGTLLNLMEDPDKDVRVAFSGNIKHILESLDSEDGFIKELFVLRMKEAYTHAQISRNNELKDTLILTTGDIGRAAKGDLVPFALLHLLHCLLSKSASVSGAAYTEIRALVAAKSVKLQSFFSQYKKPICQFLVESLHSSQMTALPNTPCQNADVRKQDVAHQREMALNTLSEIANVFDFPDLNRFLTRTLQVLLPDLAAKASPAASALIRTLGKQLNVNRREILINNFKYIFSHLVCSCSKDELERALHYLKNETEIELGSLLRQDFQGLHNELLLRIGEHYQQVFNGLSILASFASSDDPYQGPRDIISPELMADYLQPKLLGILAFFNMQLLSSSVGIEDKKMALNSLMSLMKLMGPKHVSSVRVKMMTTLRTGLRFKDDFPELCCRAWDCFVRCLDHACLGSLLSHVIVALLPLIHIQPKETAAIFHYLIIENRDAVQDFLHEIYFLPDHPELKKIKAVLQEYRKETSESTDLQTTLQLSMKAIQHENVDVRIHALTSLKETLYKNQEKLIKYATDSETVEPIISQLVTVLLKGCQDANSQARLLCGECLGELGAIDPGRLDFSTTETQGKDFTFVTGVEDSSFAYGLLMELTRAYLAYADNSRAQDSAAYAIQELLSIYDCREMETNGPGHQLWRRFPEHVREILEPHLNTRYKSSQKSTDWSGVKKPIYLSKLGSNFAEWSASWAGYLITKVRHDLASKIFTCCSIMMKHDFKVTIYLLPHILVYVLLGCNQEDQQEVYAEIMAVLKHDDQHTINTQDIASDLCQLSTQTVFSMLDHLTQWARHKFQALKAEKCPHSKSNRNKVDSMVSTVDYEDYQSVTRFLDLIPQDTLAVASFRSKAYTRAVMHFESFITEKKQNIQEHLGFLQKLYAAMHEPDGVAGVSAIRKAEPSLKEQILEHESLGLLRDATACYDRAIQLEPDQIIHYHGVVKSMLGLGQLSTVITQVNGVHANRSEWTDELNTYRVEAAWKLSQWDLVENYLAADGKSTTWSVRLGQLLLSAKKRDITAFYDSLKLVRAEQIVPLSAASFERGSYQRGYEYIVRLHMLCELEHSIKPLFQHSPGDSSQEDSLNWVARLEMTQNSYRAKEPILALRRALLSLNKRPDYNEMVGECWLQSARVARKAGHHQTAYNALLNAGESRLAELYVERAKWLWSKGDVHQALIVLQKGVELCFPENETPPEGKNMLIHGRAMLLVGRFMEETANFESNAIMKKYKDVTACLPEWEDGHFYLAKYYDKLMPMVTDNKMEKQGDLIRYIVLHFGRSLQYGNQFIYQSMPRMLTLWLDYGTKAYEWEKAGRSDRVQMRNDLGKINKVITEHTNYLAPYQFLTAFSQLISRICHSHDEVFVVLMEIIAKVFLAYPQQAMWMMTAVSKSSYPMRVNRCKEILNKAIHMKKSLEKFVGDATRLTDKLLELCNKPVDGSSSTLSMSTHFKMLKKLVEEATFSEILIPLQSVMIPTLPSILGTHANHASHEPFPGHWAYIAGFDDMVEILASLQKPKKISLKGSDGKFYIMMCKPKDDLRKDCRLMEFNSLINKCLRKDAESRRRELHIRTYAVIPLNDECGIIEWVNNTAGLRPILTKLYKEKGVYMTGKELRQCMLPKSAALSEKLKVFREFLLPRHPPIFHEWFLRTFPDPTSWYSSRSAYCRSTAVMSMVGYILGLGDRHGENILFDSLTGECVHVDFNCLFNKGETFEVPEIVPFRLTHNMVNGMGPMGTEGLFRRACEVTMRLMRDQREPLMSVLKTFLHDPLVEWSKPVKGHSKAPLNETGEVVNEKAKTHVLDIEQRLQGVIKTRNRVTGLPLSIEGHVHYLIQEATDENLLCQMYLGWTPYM

[6] = Solubility of compound at pH 6.8; assay type: physicochemical; conditions: buffer
[7] = Apparent permeability across basolateral to apical side in MDCK-MDR1 cells; assay type: ADME, cell-based, Canis lupus familiaris; conditions: dog
[8] = Apparent permeability across apical to basolateral side in MDCK-MDR1 cells; assay type: ADME, cell-based, Canis lupus familiaris; conditions: dog
[9] = Metabolic stability in dog liver microsomes assessed as intrinsic clearance at 1 uM incubated for 30 mins in presence of NADPH by LC-MS/MS analysis; assay type: ADME, Canis lupus familiaris, Microsome; conditions: read-out: CLH
[10] = target: 1-phosphatidylinositol 3-phosphate 5-kinase (Homo sapiens) (UniProt Q9Y2I7); test: Inhibition of PIKfyve in human U2OS cells coexpressing GFP-tagged FoxO3alpha assessed as residual activity at 10 uM incubated for 2 to 24 hrs by Hoechst staining based analysis relative to control; assay type: cell-based; conditions: time 2-24 hrs
[11] = Metabolic stability in human liver microsomes assessed as intrinsic clearance at 1 uM incubated for 30 mins in presence of NADPH by LC-MS/MS analysis; assay type: ADME, Microsome; conditions: read-out: CLH
[12] = Genotoxicity in human TK6 cells assessed as micronuclei formation in absence of S9 fraction measured after 3 hrs by micronucleus test; assay type: toxicity, cell-based; conditions: tk6, 3 h
[13] = Genotoxicity in human TK6 cells assessed as micronuclei formation in presence of S9 fraction measured after 3 hrs by micronucleus test; assay type: toxicity, subcellular; conditions: s9, 3 h
[14] = target: Dual specificity tyrosine-phosphorylation-regulated kinase 1A (Homo sapiens) (UniProt Q13627); test: Inhibition of DYRK1A (unknown origin) assessed as residual activity at 10 uM relative to control
Cytochrome P450 3A4 [15] = target: T2, Cytochrome P450 3A4; test: Inhibition of CYP3A4 (unknown origin); assay type: ADME
[16] = Phototoxicity against mouse BALB/3T3 clone A31 cells assessed as photo-irradiation factor incubated for 1 hr followed by irradiated with 5 J/cm^2 of light dose measured after 24 hrs by neutral red uptake assay; assay type: toxicity, cell-based; conditions: balb/3t3 clone a31, 1 h
[17] = target: Serine/threonine-protein kinase mTOR (Homo sapiens) (UniProt P42345); test: Inhibition of mTOR (unknown origin) assessed as residual activity at 10 uM relative to control
CYP2D6 = CYP2D6 (Homo sapiens, UniProt P10635); test: Inhibition of CYP2D6 (unknown origin); assay type: ADME
Sequence of CYP2D6 (P10635 whole entry): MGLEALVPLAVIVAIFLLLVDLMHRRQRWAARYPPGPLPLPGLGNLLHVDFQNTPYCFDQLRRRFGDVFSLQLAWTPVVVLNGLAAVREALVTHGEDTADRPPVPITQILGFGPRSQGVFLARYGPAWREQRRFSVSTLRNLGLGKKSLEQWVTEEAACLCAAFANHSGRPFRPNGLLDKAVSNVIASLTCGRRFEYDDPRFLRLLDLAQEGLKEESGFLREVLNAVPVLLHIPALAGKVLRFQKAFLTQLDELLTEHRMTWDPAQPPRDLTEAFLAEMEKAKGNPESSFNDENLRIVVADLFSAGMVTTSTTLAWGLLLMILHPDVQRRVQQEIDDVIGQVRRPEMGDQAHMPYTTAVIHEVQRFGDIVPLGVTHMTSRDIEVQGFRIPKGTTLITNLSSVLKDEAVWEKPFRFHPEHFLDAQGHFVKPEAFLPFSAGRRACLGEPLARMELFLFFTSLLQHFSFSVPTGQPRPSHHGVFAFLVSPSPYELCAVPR

CYP2C9 = CYP2C9 (Homo sapiens, UniProt P11712); test: Inhibition of CYP2C9 (unknown origin); assay type: ADME
Sequence of CYP2C9 (P11712 whole entry): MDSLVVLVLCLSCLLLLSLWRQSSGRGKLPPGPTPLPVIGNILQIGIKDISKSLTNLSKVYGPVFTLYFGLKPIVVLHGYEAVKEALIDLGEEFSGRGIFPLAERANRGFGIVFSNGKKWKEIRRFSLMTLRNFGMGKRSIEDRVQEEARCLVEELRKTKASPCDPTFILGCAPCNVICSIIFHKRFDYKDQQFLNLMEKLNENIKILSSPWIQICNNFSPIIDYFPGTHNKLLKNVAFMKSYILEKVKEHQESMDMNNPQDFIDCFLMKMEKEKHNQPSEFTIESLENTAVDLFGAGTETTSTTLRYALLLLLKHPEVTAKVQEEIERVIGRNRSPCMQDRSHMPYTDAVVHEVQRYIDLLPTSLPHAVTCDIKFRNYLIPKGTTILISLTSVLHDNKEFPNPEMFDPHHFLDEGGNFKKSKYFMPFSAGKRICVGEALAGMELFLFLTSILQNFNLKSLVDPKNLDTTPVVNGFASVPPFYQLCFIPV

[18] = target: Myosin light chain kinase, smooth muscle (Homo sapiens) (UniProt Q15746); test: Inhibition of MYLK (unknown origin) assessed as residual activity at 10 uM relative to control
[19] = Genotoxicity in human TK6 cells assessed as micronuclei formation in presence of S9 fraction measured after 20 hrs by micronucleus test; assay type: toxicity, subcellular; conditions: s9, 20 h
[20] = Metabolic stability in mouse liver microsomes assessed as intrinsic clearance at 1 uM incubated for 30 mins in presence of NADPH by LC-MS/MS analysis; assay type: ADME, Microsome; conditions: read-out: CLH
[21] = Metabolic stability in cynomolgus monkey liver microsomes assessed as intrinsic clearance at 1 uM incubated for 30 mins in presence of NADPH by LC-MS/MS analysis; assay type: ADME, Macaca fascicularis, Microsome; conditions: read-out: CLH
[22] = Genotoxicity in human TK6 cells assessed as micronuclei formation in absence of S9 fraction measured after 20 hrs by micronucleus test; assay type: toxicity, cell-based; conditions: tk6, 20 h
[23] = Genotoxicity in human TK6 cells assessed as micronuclei formation by micronucleus test; assay type: toxicity, cell-based
[24] = Phototoxicity against mouse BALB/3T3 clone A31 cells assessed as reduction in cell viability incubated for 1 hr followed by irradiated with 5 J/cm^2 of light dose measured after 24 hrs by neutral red uptake assay; assay type: toxicity, cell-based; conditions: balb/3t3 clone a31, 1 h
[25] = target: T1, Serine/threonine-protein kinase mTOR; test: Inhibition of mTOR in Tsc1 knockout mouse neurons assessed as reduction in phosphorylated S6 level incubated for 4 hrs by Hoechst staining based immunofluorescence analysis; assay type: cell-based, Neuron

Sequence of 3',5'-cyclic-AMP phosphodiesterase 4D (Q08499 whole entry): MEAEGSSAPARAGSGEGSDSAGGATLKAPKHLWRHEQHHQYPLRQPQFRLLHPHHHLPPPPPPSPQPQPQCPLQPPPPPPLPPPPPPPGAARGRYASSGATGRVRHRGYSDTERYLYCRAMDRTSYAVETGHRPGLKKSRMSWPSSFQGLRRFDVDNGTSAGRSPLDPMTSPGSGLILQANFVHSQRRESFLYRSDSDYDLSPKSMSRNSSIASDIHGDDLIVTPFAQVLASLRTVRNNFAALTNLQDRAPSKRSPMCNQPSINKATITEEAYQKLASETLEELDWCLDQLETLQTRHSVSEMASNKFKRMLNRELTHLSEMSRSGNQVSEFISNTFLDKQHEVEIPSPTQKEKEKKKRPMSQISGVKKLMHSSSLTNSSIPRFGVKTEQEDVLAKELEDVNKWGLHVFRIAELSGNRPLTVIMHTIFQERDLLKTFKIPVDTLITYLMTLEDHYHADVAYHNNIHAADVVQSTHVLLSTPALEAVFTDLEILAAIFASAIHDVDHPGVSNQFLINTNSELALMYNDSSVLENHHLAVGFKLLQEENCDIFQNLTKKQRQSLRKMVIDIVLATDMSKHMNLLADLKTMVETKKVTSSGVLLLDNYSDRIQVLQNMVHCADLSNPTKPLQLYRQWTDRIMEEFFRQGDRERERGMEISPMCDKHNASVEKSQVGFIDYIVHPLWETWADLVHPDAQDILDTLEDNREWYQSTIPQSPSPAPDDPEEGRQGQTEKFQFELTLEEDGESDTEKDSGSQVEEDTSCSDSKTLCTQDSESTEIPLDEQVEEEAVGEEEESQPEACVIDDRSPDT

Row | Structure (SMILES) | IC50 [1] [nM] | IC50 [2] [nM] | Kobs (Cytochrome P450 3A4 [3]) [min⁻¹] | efflux ratio [4] | IC50 [5] [nM] | solubility [6] [µg/mL] | Papp B→A [7] [×10⁻⁶ cm/s] | Papp A→B [8] [×10⁻⁶ cm/s] | also measured
1 | C[C@@H]1COCCN1c1cc(N2CCOC[C@@H]2C)cc2sc(-c3cc[nH]n3)nc12 | 42 | 15 | – | – | – | – | – | – | –
2 | C[C@@H]1COCCN1c1cc(N2C3CCC2COC3)nc2[nH]c(-c3ccccn3)nc12 | 9200 | 6.6 | 0.036 | 0.84 | 2250 | < 2 | 8.04 | 9.57 | –
3 | C[C@@H]1COCCN1c1cc(N2CCOC[C@@H]2C)nc2[nH]c(-c3nccs3)nc12 | 21000 | – | 0.021 | 0.66 | 24000 | 250 (≈ 624 µM) | 8.24 | 12.7 | –
4 | C[C@@H]1COCCN1c1nc(N2CCOC[C@@H]2C)cc2sc(-c3cc[nH]n3)nc12 | 960 | 96 | – | – | – | – | – | – | –
5 | C[C@@H]1COCCN1c1nc(N2CCOC[C@@H]2C)cc2[nH]c(-c3cc[nH]n3)nc12 | 11000 | 46 | – | – | – | – | – | – | –
6 | C[C@@H]1COCCN1c1nc(N2CCOC[C@@H]2C)nc2sc(-c3cc[nH]n3)nc12 | – | 5 | 0.006 | – | – | – | 25.4 | 27.4 | microsomal CLint at 1 µM [9]: 26 µL/min/mg; Activity [10]: 0.3%; microsomal CLint at 1 µM [11]: 92 µL/min/mg; Activity [12]: Toxic; Activity [13]: Toxic; Activity [14]: 0.15%; IC50 (Cytochrome P450 3A4 [15]): 33200 nM; Activity [16]: 253; Activity [17]: 1.3%; IC50 (CYP2D6): > 50000 nM; IC50 (CYP2C9): > 50000 nM; Activity [18]: 0.15%; Activity [19]: Toxic; microsomal CLint at 1 µM [20]: 22 µL/min/mg; microsomal CLint at 1 µM [21]: 82 µL/min/mg; Activity [22]: Toxic; Activity [23]: Toxic; Activity [24]: Toxic
7 | C[C@@H]1COCCN1c1nc(N2CCOC[C@@H]2C)nc2[nH]c(-c3cc[nH]n3)nc12 | 4900 | 16 | – | – | – | – | – | – | –
8 | C[C@@H]1COCCN1c1cc(N2CCOC[C@@H]2C)nc2[nH]c(-c3cc(O)ccc3F)nc12 | 6000 | – | 0.004 | 0.61 | 7140 | 53 (≈ 124 µM) | 15.5 | 25.6 | –
9 | CO[C@H]1C[C@@H]2CC[C@@H](C)[C@@](O)(O2)C(=O)C(=O)N2CCCC[C@H]2C(=O)O[C@H]([C@H](C)C[C@@H]2CC[C@@H](OCCO)[C@H](OC)C2)CC(=O)[C@H](C)/C=C(\C)[C@@H](O)[C@@H](OC)C(=O)[C@H](C)C[C@H](C)/C=C/C=C/C=C/1C [EVEROLIMUS] | – | – | – | – | – | – | – | – | IC50 [25]: 0.005 nM
10 | C[C@@H]1COCCN1c1cc(N2CCOC[C@@H]2C)nc2[nH]c(-c3cc[nH]n3)nc12 | 18000 | 7.7 | 0.004 | 2.52 | 1110 | 160 (≈ 417 µM) | 40 | 15.9 | –
11 | C[C@@H]1COCCN1c1cc(N2CCOC[C@@H]2C)nc2[nH]c(-c3cc[nH]n3)cc12 | 16000 | 34 | – | – | – | – | – | – | –
